Source: patent publication US10793580B2, “Substituted pyrazoloazepin-8-ones and their use as phosphodiesterase inhibitors” (LEO Pharma A/S, priority 2016, dated 2020)

What follows are molecules tested against human PDE4D catalytic domain (Homo sapiens (Human), UniProt Q08499) (assay: PDE4 Assay (TR-FRET, FAM-cAMP cleavage)). Settings: Table 16, Examples 277-296; read-out: PDE4 IC50 range.
Sequence of human PDE4D catalytic domain (Q08499 380-740): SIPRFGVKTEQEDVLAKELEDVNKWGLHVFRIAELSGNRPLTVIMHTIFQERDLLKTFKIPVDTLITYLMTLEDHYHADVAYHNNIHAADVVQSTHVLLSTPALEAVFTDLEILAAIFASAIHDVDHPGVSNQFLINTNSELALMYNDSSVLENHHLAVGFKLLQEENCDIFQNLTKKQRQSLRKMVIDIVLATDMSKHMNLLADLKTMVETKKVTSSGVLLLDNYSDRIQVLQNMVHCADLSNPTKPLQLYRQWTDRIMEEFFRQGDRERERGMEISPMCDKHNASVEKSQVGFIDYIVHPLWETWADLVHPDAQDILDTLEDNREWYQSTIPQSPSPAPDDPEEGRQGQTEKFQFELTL
Type: biochemical
Outline: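 PDE4D catalytic domain (S380-L740) incubated briefly with unlabelled cAMP plus FAM-cAMP and titrated compound. Reaction stopped with binding buffer holding metal-ion nanoparticles that bind AMP phospho groups and Tb donor, and AMP formation read by TR-FRET. IC50 versus controls, reported as ranges (nM).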
`CCn1nc(C[C@@H](C)COC(=O)c2cnc(C)nc2)c2c1C(=O)NCC1(CCOCC1)C2` [Example 288, [(2R)-3-(1-ethyl-8-oxo-spiro[6,7-dihydro-4H-pyrazolo[3,4-c]azepine-5,4′-tetrahydropyran]-3-yl)-2-methyl-propyl] 2-methylpyrimidine-5-carboxylate] showed an IC50 of under 100 nM.

Same assay, conditions: Table 17, Examples 297-316; read-out: PDE4 IC50 range
With `CCn1nc(CC(C)(C)COC(=O)c2cn(C)cn2)c2c1C(=O)NCC1(CCOCC1)C2` [Example 300, [3-(1-ethyl-8-oxo-spiro[6,7-dihydro-4H-pyrazolo[3,4-c]azepine-5,4′-tetrahydropyran]-3-yl)-2,2-dimethyl-propyl] 1-methylimidazole-4-carboxylate] the IC50 was under 100 nM.

Same assay, conditions: human PDE4D catalytic domain (UniProt Q08499 [S380-L740]); 50% inhibition of substrate cleavage; read-out: PDE4 IC50 range
Molecule `CCn1nc(C[C@@H](C)COC(=O)[C@H]2C[C@@H](O)C2)c2c1C(=O)NCC1(CCOCC1)C2` [Example 138, [(2R)-3-(1-ethyl-8-oxo-spiro[6,7-dihydro-4H-pyrazolo[3,4-c]azepine-5,4′-tetrahydropyran]-3-yl)-2-methyl-propyl] 3-hydroxy-cyclobutanecarboxylate] has an IC50 of under 100 nM. In the case of `CCn1nc(CC(C)(C)COC(=O)c2cccc(C(=O)N3CCN(C(C)=O)CC3)c2)c2c1C(=O)NCC1(CCOCC1)C2` [Example 234, [3-(1-ethyl-8-oxo-spiro[6,7-dihydro-4H-pyrazolo[3,4-c]azepine-5,4′-tetrahydropyran]-3-yl)-2,2-dimethyl-propyl] 3-(4-acetylpiperazine-1-carbonyl)benzoate], the IC50 is reported as under 100 nM. Molecule `CCn1nc(CC(C)(C)COC(=O)c2ccc(C(=O)N3CCOCC3)cc2)c2c1C(=O)NCC1(CCOCC1)C2` [Example 223, [3-(1-ethyl-8-oxo-spiro[6,7-dihydro-4H-pyrazolo[3,4-c]azepine-5,4′-tetrahydropyran]-3-yl)-2,2-dimethyl-propyl] 4-(morpholine-4-carbonyl)benzoate] has an IC50 of under 100 nM. In the case of `CCn1nc(CCCOC(=O)c2ccc(S(N)(=O)=O)cc2)c2c1C(=O)NCC1(CCOCC1)C2` [Example 65, 3-(1-ethyl-8-oxo-spiro[6,7-dihydro-4H-pyrazolo[3,4-c]azepine-5,4′-tetrahydropyran]-3-yl)propyl 4-sulfamoylbenzoate], the IC50 is reported as under 100 nM. `CCn1nc(C[C@@H](C)COC(=O)c2ccc(S(C)(=O)=O)cc2)c2c1C(=O)NCC1(CCOCC1)C2` [Example 155, [(2R)-3-(1-ethyl-8-oxo-spiro[6,7-dihydro-4H-pyrazolo[3,4-c]azepine-5,4′-tetrahydropyran]-3-yl)-2-methyl-propyl] 4-methylsulfonylbenzoate] showed an IC50 of under 100 nM. In the case of `CCn1nc(CCCOC(=O)c2ccc(C(F)(F)F)c(C(F)(F)F)c2)c2c1C(=O)NCC1(CCOCC1)C2` [Example 98, 3-(1-ethyl-8-oxo-spiro[6,7-dihydro-4H-pyrazolo[3,4-c]azepine-5,4′-tetrahydropyran]-3-yl)propyl 3,4-bis(trifluoromethyl)benzoate], the IC50 is reported as under 100 nM. For `CCn1nc(C[C@@H](C)COC(=O)c2ccc(S(=O)(=O)CC)cc2)c2c1C(=O)NCC1(CCOCC1)C2` [Example 157, [(2R)-3-(1-ethyl-8-oxo-spiro[6,7-dihydro-4H-pyrazolo[3,4-c]azepine-5,4′-tetrahydropyran]-3-yl)-2-methyl-propyl] 4-ethylsulfonylbenzoate], the IC50 was under 100 nM. For `CCn1nc(CCCOC(=O)c2cccc(S(N)(=O)=O)c2)c2c1C(=O)NCC1(CCOCC1)C2` [Example 66, 3-(1-ethyl-8-oxo-spiro[6,7-dihydro-4H-pyrazolo[3,4-c]azepine-5,4′-tetrahydropyran]-3-yl)propyl 3-sulfamoylbenzoate], the IC50 was under 100 nM. For `CCn1nc(CCCOC(=O)c2ccc(S(=O)(=O)NC)cc2)c2c1C(=O)NCC1(CCOCC1)C2` [Example 1, 3-(1-Ethyl-8-oxo-spiro[6,7-dihydro-4H-pyrazolo[3,4-c]azepine-5,4′-tetrahydropyran]-3-yl)propyl 4-(methylsulfamoyl)benzoate], the IC50 was under 100 nM. `CCn1nc(CCCOC(=O)c2cc(F)ccc2C)c2c1C(=O)NCC1(CCOCC1)C2` [Example 20, 3-(1-ethyl-8-oxo-spiro[6,7-dihydro-4H-pyrazolo[3,4-c]azepine-5,4′-tetrahydropyran]-3-yl)propyl 5-fluoro-2-methyl-benzoate] gave an IC50 of under 100 nM. `CCn1nc(C[C@@H](C)COC(=O)c2ccc(C(=O)N(C)C)cc2)c2c1C(=O)NCC1(CCOCC1)C2` [Example 171, [(2R)-3-(1-ethyl-8-oxo-spiro[6,7-dihydro-4H-pyrazolo[3,4-c]azepine-5,4′-tetrahydropyran]-3-yl)-2-methyl-propyl] 4-(di-methylcarbamoyl)benzoate] gave an IC50 of under 100 nM. Molecule `CCn1nc(CCCOC(=O)c2ccc(C(F)(F)F)c(OC)c2)c2c1C(=O)NCC1(CCOCC1)C2` [Example 83, 3-(1-ethyl-8-oxo-spiro[6,7-dihydro-4H-pyrazolo[3,4-c]azepine-5,4′-tetrahydro-pyran]-3-yl)propyl 3-methoxy-4-(trifluoromethyl)benzoate] has an IC50 of under 100 nM. With `CCn1nc(CCCOC(=O)c2coc(C)n2)c2c1C(=O)NCC1(CCOCC1)C2` [Example 240, 3-(1-ethyl-8-oxo-spiro[6,7-dihydro-4H-pyrazolo[3,4-c]azepine-5,4′-tetrahydropyran]-3-yl)propyl 2-methyloxazole-4-carboxylate] the IC50 was under 100 nM. Work on `CCn1nc(CCCOC(=O)c2cc(Cl)ccc2C)c2c1C(=O)NCC1(CCOCC1)C2` [Example 44, 3-(1-ethyl-8-oxo-spiro[6,7-dihydro-4H-pyrazolo[3,4-c]azepine-5,4′-tetrahydropyran]-3-yl)propyl 5-chloro-2-methyl-benzoate] yielded an IC50 of under 100 nM. `CCn1nc(CCCCOC(=O)c2ccc(S(C)(=O)=O)cc2)c2c1C(=O)NCC1(CCOCC1)C2` [Example 130, 4-(1-ethyl-8-oxo-spiro[6,7-dihydro-4H-pyrazolo[3,4-c]azepine-5,4′-tetrahydropyran]-3-yl)butyl 4-methylsulfonyl-benzoate] was tested, and the IC50 was under 100 nM. Molecule `CCc1cc(C(=O)OCCCc2nn(CC)c3c2CC2(CCOCC2)CNC3=O)nn1C` [Example 259, 3-(1-ethyl-8-oxo-spiro[6,7-dihydro-4H-pyrazolo[3,4-c]azepine-5,4′-tetrahydro-pyran]-3-yl)propyl 5-ethyl-1-methyl-pyrazole-3-carboxylate] has an IC50 of under 100 nM. For `CCn1nc(CC(C)(C)COC(=O)c2cccc(S(=O)(=O)C(C)C)c2)c2c1C(=O)NCC1(CCOCC1)C2` [Example 206, [3-(1-ethyl-8-oxo-spiro[6,7-dihydro-4H-pyrazolo[3,4-c]azepine-5,4′-tetrahydropyran]-3-yl)-2,2-dimethyl-propyl] 3-isopropylsulfonylbenzoate], the IC50 was under 100 nM. Work on `CCn1nc(CC(C)(C)COC(=O)c2ccccc2OC)c2c1C(=O)NCC1(CCOCC1)C2` [Example 198, [3-(1-ethyl-8-oxo-spiro[6,7-dihydro-4H-pyrazolo[3,4-c]azepine-5,4′-tetrahydropyran]-3-yl)-2,2-dimethyl-propyl] 2-methoxybenzoate] yielded an IC50 of under 100 nM. Work on `CCn1nc(C[C@@H](C)COC(=O)[C@H]2CC[C@@H](O)CC2)c2c1C(=O)NCC1(CCOCC1)C2` [Example 147, [(2R)-3-(1-ethyl-8-oxo-spiro[6,7-dihydro-4H-pyrazolo[3,4-c]azepine-5,4′-tetrahydropyran]-3-yl)-2-methyl-propyl] 4-hydroxy-cyclohexanecarboxylate] yielded an IC50 of under 100 nM.
